Results published in PubChem BioAssay (NCI).
“And” between values parts separate entries of the source, which are not always exact repeats. Equal entries are not always repeated.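 Step 1: Grow cells in 96-well plates. Step 2: Expose to compound for 48 hours at 5 concentrations. Step 3: Interpolate endpoints linearly; if unreached, use highest concentration. GI50 is the concentration that inhibits growth by half. TGI: total growth inhibition.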

Legend:
Experiment in all cases: NCI anticancer screen, dose series, 48 h
UACC-257 melanoma = system: UACC-257 melanoma
COLO 205 colon = system: COLO 205 colon
DU-145 prostate = system: DU-145 prostate
OVCAR-4 ovarian = system: OVCAR-4 ovarian
PC-3 prostate = system: PC-3 prostate
SK-OV-3 ovarian = system: SK-OV-3 ovarian
NCI-H226 lung = system: NCI-H226 lung
CCRF-CEM leukemia = system: CCRF-CEM leukemia
SF-539 CNS = system: SF-539 CNS
ACHN renal = system: ACHN renal

| Structure (SMILES) | GI50 (UACC-257 melanoma) | TGI (UACC-257 melanoma) | GI50 (COLO 205 colon) | TGI (COLO 205 colon) | GI50 (DU-145 prostate) | TGI (DU-145 prostate) | GI50 (OVCAR-4 ovarian) [µM] | TGI (OVCAR-4 ovarian) | GI50 (PC-3 prostate) [µM] | TGI (PC-3 prostate) | GI50 (SK-OV-3 ovarian) [µM] | TGI (SK-OV-3 ovarian) | GI50 (NCI-H226 lung) [µM] | TGI (NCI-H226 lung) | GI50 (CCRF-CEM leukemia) | TGI (CCRF-CEM leukemia) [µM] | GI50 (SF-539 CNS) | TGI (SF-539 CNS) | GI50 (ACHN renal) | TGI (ACHN renal) |
| --- | --- | --- | --- | --- | --- | --- | --- | --- | --- | --- | --- | --- | --- | --- | --- | --- | --- | --- | --- | --- |
| Cc1ccc(C(SCC(N)C(=O)O)(c2ccccc2)c2ccccc2)cc1 (stereo unspecified) | 22.8 µM | > 100 µM | 0.098 µM | 0.95 µM | 0.181 µM | 0.466 µM | 22.8 | > 100 µM | 0.075 | > 100 µM | 0.0748 | > 94.7 µM | 9.29 | 42.9 µM | 0.0832 µM | > 100 | 0.033 µM | 1.08 µM | 2.67 µM | > 100 µM |
| C/C(=N\NC(=S)N1CC2CCC(CC2)C1)c1cccc(C)n1 | 0.68 µM | 9.8 µM | 0.000385 µM | 11.1 µM | 0.378 µM | 7.1 µM | 0.000172 | 16.1 µM |  | 15.6 µM |  | 7.47 µM |  | 7.73 µM | 0.000124 µM |  | 0.464 µM | 2.58 µM |  | 5.33 µM |
| Cc1[nH]c(-c2nc3ccccc3[nH]2)c(C)c1C(=O)NC(C)C1CCCCC1 (stereo unspecified) | 13.2 µM | 33.3 µM | 18.3 µM | 58 µM | 14.6 µM | 28.2 µM | 12.4 | 26.8 µM | 12 | 28.4 µM | 15.3 | 34.4 µM | 13.9 | 37.3 µM | 5.49 µM | 21.4 | 6.7 µM | 19.6 µM | 14.4 µM | 30.2 µM |
| O=c1c(Br)cc2c(-c3ccccc3)c3cc(Br)c(O)c(Br)c3oc-2c1Br |  | > 100 µM |  | > 100 µM |  | > 100 µM |  | 63.7 µM |  | > 100 µM |  | > 100 µM |  | > 100 µM |  | > 100 |  | > 100 µM |  | > 100 µM |
| Cc1ccc(C2=C(c3ccccc3)C(c3ccccc3)Oc3ccc(C)cc32)cc1 (stereo unspecified) | 9.2 µM | 23.7 µM |  |  | 3.56 µM | 12.5 µM | 2.27 | 7.44 µM | 12.8 | 34.4 µM |  |  | 15.8 | 37.9 µM | 13.8 µM | 39 | 6.29 µM | 20 µM | 16.6 µM | 31.2 µM |
| O=C1C(=O)c2ccccc2C(O)=C1CCCc1ccc(C2CCCCCC2)cc1 | 0.662 µM | > 23.3 µM | 4.9 µM | 20 µM | 0.72 µM | 34.3 µM | 1.02 | > 100 µM | 0.542 | > 42.4 µM | 2.85 | 54.6 µM | 2.2 | 31.7 µM | 1.16 µM | > 100 | 2.56 µM | > 74.7 µM | 0.703 µM | > 100 µM |
| CC(C)n1nc(-c2ccc3oc(N)nc3c2)c2c(N)ncnc21 | < 0.0123 µM and 0.0137 µM | 0.145 µM and 0.121 µM | < 0.01 µM and 0.0144 µM | 2.21 µM and 1.88 µM | 0.0203 µM and 0.0208 µM | 11.9 µM and 6.63 µM | < 0.01 | 0.077 µM and 0.0569 µM | < 0.01 | 3.94 µM and 2.57 µM | < 0.01 | 0.049 µM and 0.0548 µM | < 0.01 | 0.371 µM and 0.231 µM | 0.0265 µM and 0.0467 µM | > 45.6 | 0.0184 µM and 0.0175 µM | 0.0902 µM and 0.113 µM | 0.0105 µM and 0.013 µM | 1.14 µM and 0.82 µM |
| NC(N)=Nc1nc2ccc([N+](=O)[O-])cc2[nH]1 |  | > 100 µM |  | > 100 µM |  | > 100 µM |  | > 100 µM |  | > 100 µM |  | > 100 µM |  | > 100 µM |  | > 100 |  | > 100 µM |  | > 100 µM |
| COc1c(-c2ccc(O)c(O)c2)oc2c(O)c(O)cc(O)c2c1=O |  | > 100 µM |  | > 100 µM |  | > 100 µM |  | > 100 µM |  | > 100 µM |  | > 100 µM |  | > 100 µM |  | 97.7 |  | > 100 µM |  | > 100 µM |
| CCOC(=O)c1oc2ccc([N+](=O)[O-])c3c2c1CCC3 |  | > 100 µM |  | > 100 µM |  | > 100 µM |  | > 100 µM |  | > 100 µM |  | > 46.3 µM |  | > 100 µM |  | > 100 |  | 39.7 µM |  | > 100 µM |
| c1cncc(C2Nc3cccc4cccc(c34)N2)c1 |  |  | 22.6 µM | 46.6 µM | > 100 µM | > 100 µM | 13.8 | 27.3 µM | 18.5 | 46.7 µM | > 100 | > 100 µM | 80.5 | > 100 µM | 22.6 µM | > 100 | 39 µM | > 100 µM | 17.3 µM | 34.5 µM |
| Cc1[nH]nc2c1N=C(c1ccccc1F)c1cc(C(N)=O)ccc1N2 | 9.15 µM | > 25 µM | 2.3 µM | 6.61 µM | 6.71 µM | > 25 µM | 5.25 | > 25 µM | 2.26 | > 25 µM | 6.43 | > 25 µM | 0.852 | 6.38 µM | 1.15 µM | > 14.9 | 0.621 µM | 3.54 µM | 3.3 µM | > 22.9 µM |
| CCc1cc2ncc(CN3CCN(c4ccc(C(=O)NC)nc4)CC3)cc2[nH]c1=O | 55.1 µM | > 100 µM | > 100 µM | > 100 µM | > 100 µM | > 100 µM | 41.3 | > 100 µM | 51.7 | > 100 µM | > 100 | > 100 µM | 14.7 | > 100 µM | 97.1 µM | > 100 | 66.9 µM | > 100 µM | 78.3 µM | > 100 µM |
| CN1CCN(Cc2ccc(NC(=O)c3cncc(C#Cc4cncc5nccnc45)c3)cc2C(F)(F)F)CC1 | 1.48 µM | 6.27 µM | 0.904 µM | 7.11 µM | 3.22 µM | 9.6 µM | 1.04 | 12 µM | 4.73 | 32.2 µM | 2.75 | 13 µM | 0.628 | > 50 µM | 3.98 µM | 35 | 0.956 µM | 6 µM | 1.57 µM | 6.48 µM |
| COC(=O)/C=C1/SC(N2N=C(c3cccs3)CC2c2ccc(F)cc2)=NC1=O (stereo unspecified) | 2.39 µM | 6.83 µM | 2.15 µM | 4.27 µM | 2.12 µM | 4.75 µM | 2.64 | 7.49 µM | 1.92 | 4.3 µM | 9.78 | 53.9 µM | 2.24 | 6.32 µM | 3 µM | 8.73 | 1.86 µM | 3.39 µM | 1.89 µM | 3.47 µM |
| COc1cc(C2C3=C(COC3=O)Nc3c2ccc2c3CCCC2)cc2c1OCO2 (stereo unspecified) |  |  | 0.0322 µM | 0.0942 µM | 0.0416 µM | 0.505 µM | 0.121 | > 100 µM | 0.0387 | > 100 µM | 0.0311 | 0.103 µM | 0.0343 | 0.185 µM | 0.0367 µM | > 100 | 0.0331 µM | 13.4 µM | 0.134 µM | > 100 µM |
| CC(/C=C/c1ccccc1)=N\NC(N)=S |  | > 100 µM |  | 44.2 µM |  | > 100 µM |  |  |  | > 100 µM |  | > 100 µM |  | > 100 µM |  | > 100 |  | 94.5 µM |  | > 100 µM |
| O=C1Nc2ccccc2/C1=C\c1nc(C2CCN(S(=O)(=O)c3ccc(F)cc3)CC2)n2ccccc12 |  |  | > 100 µM | > 100 µM | 4.35 µM | > 100 µM |  |  | 4.98 | > 100 µM | 4.96 | > 100 µM | 2.32 | 21.1 µM | > 100 µM | > 100 | 1.39 µM | 3.07 µM | 4.07 µM | > 100 µM |
| Oc1ccc(CCNCc2cc3c(cc2Br)OCO3)cc1 |  | > 100 µM |  | 40.8 µM |  | > 100 µM |  |  |  | > 100 µM |  | > 100 µM |  | > 100 µM |  | > 100 |  | > 100 µM |  | > 100 µM |
| COc1cccc2c1C(=O)c1c(O)c3c(c(O)c1C2=O)C[C@@](O)(C(=O)CO)CC3OC1CC(O)C(O)C(C)O1 (stereo partly specified) |  | 2.99 µM |  |  |  | 0.176 µM |  | 6.85 µM |  | 2.39 µM |  | 7.29 µM |  | 0.219 µM |  | > 35.4 |  | 0.795 µM |  | 0.598 µM |
| CCCCNC(=O)c1cc(NCc2cc(O)ccc2O)ccc1O | 16.4 µM | 32.4 µM | 17 µM | 36.9 µM | 15.9 µM | 29.6 µM | 12.3 | 24.8 µM | 10.3 | 27.4 µM | 67.5 | > 100 µM |  |  | 0.873 µM | 12.8 | 4.16 µM | 17.1 µM | 10.8 µM | 22.7 µM |
| Cn1c2ccccc2c2c3[nH][nH]c(=O)c3c3c4ccccc4[nH]c3c21 |  |  | 4.74 µM | 21 µM | 2.45 µM | 29.1 µM | 2.6 | 13.2 µM | 2.03 | 11.3 µM | 3.46 | 64.8 µM | 2.34 | 22.6 µM | 2.89 µM | 10.2 | 1.22 µM | 3.12 µM | 2.6 µM | > 100 µM |
